Reference: ChEMBL document CHEMBL1201862, “PubChem BioAssay data set” (2004)
Calls of active or inactive are those of the source.

Experiments:
[1] = non-specific 3'UTR reporter inhibition in Clone20-Shn3RL – cell-based, Renilla luciferase, cherry-picked, counter-screen for Shn3 inhibitor project, dose response (AID 624133); assay type: functional
[2] = reduction of Shn3 3'UTR-driven luciferase in osteoblasts – cell-based, Clone20 osteoblasts, firefly luciferase, cherry-picked, dose response (AID 624132); assay type: functional;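 note: firefly luciferase luminescence from reporter carrying the Shn3 3'UTR in osteoblasts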
[3] = molecular target: T1, Melanocortin receptor 4 (Homo sapiens, UniProt P32245); assay: inhibitors of MC4R cAMP signaling – cell-based, TR-FRET, biased antagonists, dose response (AID 602298); assay type: functional;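 note: antagonist potency against agonist-stimulated cAMP production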
T1 sequence (P32245 whole entry): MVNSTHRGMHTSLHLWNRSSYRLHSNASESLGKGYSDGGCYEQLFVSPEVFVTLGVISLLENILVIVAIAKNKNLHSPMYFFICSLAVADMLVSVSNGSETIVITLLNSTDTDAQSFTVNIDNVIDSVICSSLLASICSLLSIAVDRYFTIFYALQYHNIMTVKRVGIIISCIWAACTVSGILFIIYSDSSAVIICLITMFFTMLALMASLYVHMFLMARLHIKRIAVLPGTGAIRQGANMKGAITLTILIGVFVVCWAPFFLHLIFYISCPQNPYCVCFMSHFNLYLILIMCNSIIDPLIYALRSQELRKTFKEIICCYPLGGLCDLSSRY

[4] = loss of viability in HepG2 cells – cell-based, CellTiter-Glo, cherry-picked, cytotoxicity control for Shn3 inhibitor project, dose response (AID 624134); assay type: functional
[5] = cAMP pathway inhibition in counterscreen cell line – TR-FRET cAMP detection, counter-screen for MC4R biased antagonist project, dose response (AID 602305); assay type: functional, cell-based;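 note: U2OS cells stimulated with forskolin near its EC80 as the cAMP inducer; potency is for inhibition of forskolin-stimulated cAMP signaling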
[6] = activation of miR-122 Renilla sensor silencing – cell-based, Huh7 psiCHECK-miR122, Renilla luciferase, cherry-picked, dose response (AID 651956); assay type: functional;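 note: huh7 hepatoma cells stably carrying a psiCHECK-2 miR-122 sensor plasmid; renilla luciferase signal reporting endogenous miR-122 activity after 48 h compound exposure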
[7] = general mammalian cell viability loss – inhibitor set, cherry-pick, set 2, cytotoxicity control for miR-122 modulator project, dose response (AID 720697); assay type: functional, cell-based
[8] = general mammalian cell viability loss – activator set, cherry-pick, cytotoxicity control for miR-122 modulator project, dose response (AID 720690); assay type: functional, cell-based;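 note: HEK293T human cells scored for general mammalian cytotoxicity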
[9] = molecular target: T2, Botulinum neurotoxin type A (Clostridium botulinum (strain Hall / ATCC 3502 / NCTC 13319 / Type A), UniProt P0DPI1); assay: Confirmatory FRET assay using full length substrates for Botulinum neurotoxin light chain A protease, with Powder Set01.; assay type: functional
T2 sequence (P0DPI1 2-448 limits assumed): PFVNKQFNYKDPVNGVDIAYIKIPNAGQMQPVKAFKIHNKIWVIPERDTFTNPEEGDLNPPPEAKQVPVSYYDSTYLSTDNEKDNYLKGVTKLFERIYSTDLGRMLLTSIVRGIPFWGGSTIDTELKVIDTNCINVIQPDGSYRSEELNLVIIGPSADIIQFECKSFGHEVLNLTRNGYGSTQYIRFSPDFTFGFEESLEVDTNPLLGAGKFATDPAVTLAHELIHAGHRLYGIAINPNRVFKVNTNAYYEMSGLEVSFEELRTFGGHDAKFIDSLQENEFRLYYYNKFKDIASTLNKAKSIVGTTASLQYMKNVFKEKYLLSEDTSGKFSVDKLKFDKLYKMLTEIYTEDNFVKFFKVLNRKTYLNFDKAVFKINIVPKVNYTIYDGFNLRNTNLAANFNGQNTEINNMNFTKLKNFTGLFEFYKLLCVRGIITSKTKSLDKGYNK

[10] = molecular target: Botulinum neurotoxin type F (Clostridium botulinum, UniProt P30996); assay: High-throughput multiplex microsphere dose response for inhibitors of toxin protease, specifically Botulinum neurotoxin light chain F protease, compounds from Powder Set 01.; assay type: functional, Clostridium botulinum Bf; conditions: read-out: EC50_MICROM
Chain of Botulinum neurotoxin type F (P30996 1-436 limits assumed): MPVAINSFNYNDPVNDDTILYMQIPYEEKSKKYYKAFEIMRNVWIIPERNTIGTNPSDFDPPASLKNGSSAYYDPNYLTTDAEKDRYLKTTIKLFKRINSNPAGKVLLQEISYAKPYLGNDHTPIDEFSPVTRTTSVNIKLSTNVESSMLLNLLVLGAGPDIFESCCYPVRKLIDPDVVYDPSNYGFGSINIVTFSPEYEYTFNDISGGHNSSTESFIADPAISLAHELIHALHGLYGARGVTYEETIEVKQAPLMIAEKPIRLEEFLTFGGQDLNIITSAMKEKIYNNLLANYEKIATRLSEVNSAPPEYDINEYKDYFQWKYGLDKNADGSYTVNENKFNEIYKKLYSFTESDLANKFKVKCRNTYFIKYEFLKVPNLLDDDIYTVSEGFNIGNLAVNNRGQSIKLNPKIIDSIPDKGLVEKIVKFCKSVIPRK

[11] = molecular target: Lethal factor (Bacillus anthracis, UniProt P15917); assay: High-throughput multiplex microsphere dose response for inhibitors of toxin protease, specifically Lethal Factor protease, compounds from Powder Set 01.; assay type: functional, Bacillus anthracis str. A2012; conditions: read-out: EC50_MICROM
Chain of Lethal factor (P15917 whole entry): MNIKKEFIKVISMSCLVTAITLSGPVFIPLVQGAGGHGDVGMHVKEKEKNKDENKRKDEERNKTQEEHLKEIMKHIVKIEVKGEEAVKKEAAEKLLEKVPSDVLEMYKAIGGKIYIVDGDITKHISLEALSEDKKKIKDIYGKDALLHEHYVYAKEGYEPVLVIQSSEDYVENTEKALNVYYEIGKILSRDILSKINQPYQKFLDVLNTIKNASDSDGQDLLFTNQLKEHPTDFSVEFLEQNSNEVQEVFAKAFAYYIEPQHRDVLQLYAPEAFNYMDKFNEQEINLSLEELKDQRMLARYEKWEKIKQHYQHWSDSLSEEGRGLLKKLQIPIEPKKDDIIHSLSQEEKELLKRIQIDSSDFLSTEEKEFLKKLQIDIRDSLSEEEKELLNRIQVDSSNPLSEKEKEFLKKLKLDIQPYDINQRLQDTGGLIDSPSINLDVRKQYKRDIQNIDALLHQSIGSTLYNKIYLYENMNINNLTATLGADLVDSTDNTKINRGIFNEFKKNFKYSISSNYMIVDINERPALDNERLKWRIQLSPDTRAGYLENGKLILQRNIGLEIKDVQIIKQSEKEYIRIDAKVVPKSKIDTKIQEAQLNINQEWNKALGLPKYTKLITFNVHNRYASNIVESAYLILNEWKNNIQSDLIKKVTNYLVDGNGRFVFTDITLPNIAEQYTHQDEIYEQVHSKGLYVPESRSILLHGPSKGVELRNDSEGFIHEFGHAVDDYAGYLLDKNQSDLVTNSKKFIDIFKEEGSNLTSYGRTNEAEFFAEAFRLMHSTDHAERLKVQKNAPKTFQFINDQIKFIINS

[12] = molecular target: T2, Botulinum neurotoxin type A; assay: High-throughput multiplex microsphere dose response for inhibitors of toxin protease, specifically Botulinum neurotoxin light chain A protease, compounds from Cherry Pick 01.; assay type: functional; conditions: read-out: EC50_MICROM
[13] = molecular target: T2, Botulinum neurotoxin type A; assay: High-throughput multiplex microsphere dose response for inhibitors of toxin protease, specifically Botulinum neurotoxin light chain A protease, compounds from Powder Set 01.; assay type: functional, Clostridium botulinum A str. ATCC 3502; conditions: read-out: EC50_MICROM
[14] = molecular target: T1, Melanocortin receptor 4; assay type: functional, cell-based
[15] = molecular target: T3, Trace amine-associated receptor 1 (Homo sapiens, UniProt Q96RJ0); assay: Counterscreen for agonists of the human trace amine associated receptor 1 (hTAAR1): Fluorescence-based cell-based high throughput dose response assay to identify hTAAR1 agonist that also desensitize TAAR1 receptor response.; assay type: functional
T3 sequence (Q96RJ0 whole entry): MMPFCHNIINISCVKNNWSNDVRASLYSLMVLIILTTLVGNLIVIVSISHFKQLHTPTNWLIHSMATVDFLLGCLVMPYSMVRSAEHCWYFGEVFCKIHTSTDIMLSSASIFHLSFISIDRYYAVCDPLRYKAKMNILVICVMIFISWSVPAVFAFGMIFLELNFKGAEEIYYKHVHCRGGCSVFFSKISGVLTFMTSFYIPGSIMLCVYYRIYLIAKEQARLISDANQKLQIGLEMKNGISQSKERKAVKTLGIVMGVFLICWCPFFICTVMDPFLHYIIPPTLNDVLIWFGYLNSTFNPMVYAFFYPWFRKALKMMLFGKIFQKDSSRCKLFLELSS

[16] = molecular target: T3, Trace amine-associated receptor 1; assay: Fluorescence-based cell-based high throughput dose response assay to identify agonists of the human trace amine associated receptor 1 (TAAR1).; assay type: functional
[17] = cells; assay type: functional, cell-based
[18] = cells; assay type: functional, cell-based; remark: listed apart in the source
[19] = molecular target: T4, Low molecular weight phosphotyrosine protein phosphatase (Homo sapiens, UniProt P24666); assay type: functional; conditions: read-out: IC50_Mean
T4 sequence (P24666 whole entry): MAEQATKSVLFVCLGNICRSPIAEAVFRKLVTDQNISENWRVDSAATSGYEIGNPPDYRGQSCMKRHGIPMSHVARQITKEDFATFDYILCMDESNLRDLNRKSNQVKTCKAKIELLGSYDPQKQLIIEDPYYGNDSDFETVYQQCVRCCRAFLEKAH

[20] = molecular target: T4, Low molecular weight phosphotyrosine protein phosphatase; assay type: functional; conditions: read-out: IC50_Mean; remark: listed apart in the source
[21] = molecular target: T5, Carboxy-terminal domain RNA polymerase II polypeptide A small phosphatase 1 (Homo sapiens, UniProt Q9GZU7); assay: CTDSP1 inhibitors, concentration-response, biochemical, absorbance readout, ultra-high-throughput screen actives (AID 540297); assay type: functional
T5 sequence (Q9GZU7 whole entry): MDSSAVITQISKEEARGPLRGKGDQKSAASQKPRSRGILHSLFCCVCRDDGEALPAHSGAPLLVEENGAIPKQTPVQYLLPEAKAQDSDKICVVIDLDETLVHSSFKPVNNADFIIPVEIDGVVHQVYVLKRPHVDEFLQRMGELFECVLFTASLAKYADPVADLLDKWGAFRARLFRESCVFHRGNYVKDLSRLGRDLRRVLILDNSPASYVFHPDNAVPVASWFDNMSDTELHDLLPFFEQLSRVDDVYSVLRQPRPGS

Question: Which AC50 [1] does the source give for `O=C(CSc1c2c(nc3ccc(Cl)cc13)CCCC2)N1CCN(C(=O)c2ccco2)CC1` here?
Answer: 11.8 µM (active)

Question: And the AC50 [2]?
Answer: 3.75 µM (active)

Question: And the IC50 [3]?
Answer: > 64.6 µM (inactive)

Question: What about the AC50 [4] of the same compound?
Answer: 65.3 µM (active)

Question: What about the IC50 [5] of the same compound?
Answer: > 64.6 µM (inactive)

Question: What does the source list for `C[C@H](CO)N1C[C@H](C)[C@H](CN(C)C(=O)c2ccc3c(c2)OCO3)Oc2cc(C#Cc3ccccc3F)ccc2S1(=O)=O`?
Answer: AC50 [6]: 36.6 µM (active); AC50 [7]: 23.7 µM (active); AC50 [8]: 20.8 µM (active)

Question: For `O=C(Nc1ccc2nc(-c3cccs3)c(-c3cccs3)nc2c1)N1CCOCC1`, which EC50 [9] is on record?
Answer: 0.4 µM (active)

Question: And the EC50 [10]?
Answer: 9.6 µM (active)

Question: What about the EC50 [11] of the same compound?
Answer: 7.6 µM (active)

Question: And the EC50 [12]?
Answer: 15.5 µM (active)

Question: And the EC50 [13]?
Answer: 5.8 µM (active)

Question: With `CC(=O)Nc1cc(-c2ccc(N(C)C)cc2)cn2c(-c3ccc(F)c(Cl)c3)cnc12` as the compound, how does the EC50 [14] read?
Answer: 3.99 µM (active)

Question: With `O=C(O)C1C2CCC(C2)C1C(=O)NCCc1cccc(Cl)c1` (stereo unspecified) as the compound, how does the IC50 [15] read?
Answer: > 29.9 µM (inactive)

Question: What about the EC50 [16] of the same compound?
Answer: 2.58 µM (active)

Question: And the EC50 [17]?
Answer: > 29.9 µM (inactive)

Question: And the IC50 [18]?
Answer: > 29.9 µM (inactive)

Question: For `O=C(N/N=C\c1ccc(OC(=O)c2cccs2)cc1)c1ccc(Cl)cc1`, which IC50 [19] is on record?
Answer: 4.51 µM (active)

Question: And the IC50 [20]?
Answer: 11.4 µM (active)

Question: And the IC50 [21]?
Answer: 2.16 µM (active)
